≈ marks a conversion by molar mass, not a printed value. Where two headings read alike, the source gives them in different places.
How the values were obtained:
S. aureus ATCC 3798 = assay: MIC by microdilution, S. aureus ATCC 3798; format: cell-based; settings: Staphylococcus aureus, ATCC3798
Experimental: (§1) Compounds were tested against Gram-positive and Gram-negative bacteria, including sensitive or drug resistant strains from American Type Culture Collection (ATCC), as well as resistant clinical isolates from the culture collection of the Laboratory for Control of Hospital Infections (Sechenov University, Moscow, Russia). Collection cultures of Gram-positive bacteria: Staphylococcus aureus ATCC 25923, Staphylococcus aureus ATCC 3798, Staphylococcus aureus ATCC 700,699 and clinical isolates of Gram-positive bacteria: Staphylococcus aureus 5, Staphylococcus aureus 10, Staphylococcus aureus 100 KS, Staphylococcus epidermidis 533, Enterococcus faecium 569 and collection cultures of Gram-negative bacteria: Escherichia coli ATCC 25922, Klebsiella pneumoniae ATCC 13883, Salmonella cholerasuis ATCC 14,028 were used.
(§2) For the cultivation of the strains, various nutrient media were used: Trypticase Soy Agar BBL for Staphylococcus sp., E. coli, K. pneumoniae, S. cholerasuis and Columbia Agar Base BBL for the cultivation of Enterococcus sp. Cultures grown on appropriate nutrient media at 35 °C for 1 day were used to set up experiments. For determination of the antibacterial action Mueller-Hinton (Acumedia, Baltimore, MD, USA) liquid medium was used. The minimum inhibitory concentrations (MIC) were determined by the microdilution method in 96 well sterile plates in a cation-adjusted Müller-Hinton medium in accordance with the requirements of the Institute of Clinical and Laboratory Standards (CLSI/NCCLS). MIC was defined as the minimum drug concentration that completely prevents the growth of the test organism.

S. aureus 5 = assay: MIC by microdilution, S. aureus 5; format: cell-based; settings: Staphylococcus aureus
Experimental: as §1, §2

[1] = Determination of lipophilicity, LogPow by HPLC method; format: physicochemical; settings: experimental, pH 7.4
From the text: We used the partition coefficient as an indicator of lipophilicity. The partition coefficient (P) is defined as the ratio of the equilibrium solute concentrations in a two-phase system of immiscible solvents. The most common in practice is the octanol-water (Pow) system. The partition coefficient is usually represented as a decimal logarithm (LogPow). It can be measured in several ways. A most advanced, accurate, and less time-consuming is the HPLC method for determining Pow using high-performance liquid chromatography. HPLC is performed on an analytical column with a solid phase containing long hydrocarbon chains chemically bound to silica gel. The retention time on such a column (Rt) is directly related to the partition coefficient Pow. The most informative in our case was the partition coefficient at a physiological pH value of 7.4. It was at this pH that the main biological experiments with the studied substances were carried out, namely tests of antimicrobial activity and cytotoxicity. HPLC was performed on a Shimadzu LC-20AD system using Kromasil-100-5-C18 (Akzo-Nobel) column, 4.6 × 250 mm, 20 °C temperature, UV detection, mobile phase A—0.2% HCOONH4), mobile phase B-MeCN, (pH 7.4), fl-1 mL/min., loop 20 mkl. After calibration using substances with a known LogPow, it is possible to recalculate Rt to LogPow. For calibration, we used aniline (LogPow 0.9), p-chloroaniline (LogPow 1.8), diphenylamine (LogPow 3.4), triphenylamine (LogPow 5.7).

S. aureus 10 = assay: MIC by microdilution, S. aureus 10; format: cell-based; settings: Staphylococcus aureus
Experimental: as §1, §2

P. aeruginosa ATCC 27853 = assay: MIC by microdilution, P. aeruginosa ATCC 27853; format: cell-based; settings: Pseudomonas aeruginosa, ATCC27853
Experimental: as §2

[2] = test system: Gram-positive and Gram-negative bacteria; assay: Antibacterial activity in vitro, strain panel in general; format: cell-based; settings: general statement over the strain panel
Experimental: as §1, §2

S. aureus ATCC 700699 = assay: MIC by microdilution, S. aureus ATCC 700699; format: cell-based, Staphylococcus aureus
Experimental: as §1, §2

S. aureus 100 KC = assay: MIC by microdilution, S. aureus 100 KC; format: cell-based; settings: Staphylococcus aureus
Experimental: as §1, §2

S. epidermidis 533 = assay: MIC by microdilution, S. epidermidis 533; format: cell-based; settings: Staphylococcus epidermidis
Experimental: as §1, §2

E. faecium 569 = assay: MIC by microdilution, E. faecium 569; format: cell-based, Enterococcus faecium
Experimental: as §1, §2

E. coli ATCC 25922 = assay: MIC by microdilution, E. coli ATCC 25922; format: cell-based, Escherichia coli
Experimental: as §1, §2

[3] = test system: S. cholerasuis ATCC 14028; assay: MIC by microdilution, S. cholerasuis ATCC 14028; format: cell-based; settings: Salmonella, ATCC14028
Experimental: as §1, §2

K. pneumoniae ATCC 13883 = assay: MIC by microdilution, K. pneumoniae ATCC 13883; format: cell-based; settings: Klebsiella pneumoniae, ATCC13883
Experimental: as §1, §2

S. aureus ATCC 25923 = assay: MIC by microdilution, S. aureus ATCC 25923; format: cell-based; settings: Staphylococcus aureus, ATCC25923
Experimental: as §1, §2

[4] = substances with a known LogPow used for HPLC calibration; cited from earlier work
[5] = S. aureus ATCC 3798, multiresistant incl. ciprofloxacin, levofloxacin, read-out: MIC
[6] = S. aureus 5, methicillin resistant (MRSA) clinical isolate, read-out: MIC
[7] = clinical isolate S. aureus 10, sensitive to all antibiotics, read-out: MIC
[8] = P. aeruginosa ATCC 27853, read-out: MIC
[9] = S. aureus ATCC 700699, resistant to levofloxacin
[10] = Staphylococcus aureus, ATCC700699, S. aureus ATCC 700699, resistant to levofloxacin, read-out: MIC
[11] = S. aureus 100 KC, methicillin resistant (MRSA) clinical isolate, read-out: MIC
[12] = S. epidermidis 533, resistant to gentamicin, read-out: MIC
[13] = Enterococcus faecium, E. faecium 569, resistant to cefuroxime, clindamycin, gentamycin, vancomycin, doxycycline, read-out: MIC
[14] = Escherichia coli, ATCC25922, E. coli ATCC 25922, read-out: MIC
[15] = S. cholerasuis ATCC 14028, read-out: MIC
[16] = K. pneumoniae ATCC 13883, read-out: MIC
[17] = S. aureus ATCC 25923, sensitive to all antibiotics, read-out: MIC

OCCCCCn1cc([C+](c2cn(CCCCCO)c3ccccc23)c2cn(CCCCCO)c3ccccc23)c2ccccc21.[Cl-] [8d, tris(1-(5-Hydroxypentyl)-1H-indol-3-yl)methylium chloride]
MIC (S. aureus ATCC 3798; [5]): 2 µg/mL
MIC (S. aureus 5; [6]): 4 µg/mL
LogPow [1]: 4
MIC (S. aureus 10; [7]): 1 µg/mL
MIC (P. aeruginosa ATCC 27853; [8]): > 64 µg/mL
MIC (antibacterial activity, strains not specified) [2]: highly active against Gram-positive bacteria
MIC (S. aureus ATCC 700699; [9]): active
MIC (S. aureus ATCC 700699; [10]): 2 µg/mL
MIC (S. aureus 100 KC; [11]): 2 µg/mL
MIC (S. epidermidis 533; [12]): 1 µg/mL
MIC (E. faecium 569; [13]): 8 µg/mL
MIC (E. coli ATCC 25922; E. coli ATCC 25922): moderate level of activity
MIC (E. coli ATCC 25922; [14]): 8 µg/mL
MIC [3, 15]: > 64 µg/mL
MIC (K. pneumoniae ATCC 13883; [16]): 2 µg/mL
MIC (S. aureus ATCC 25923; [17]): 2 µg/mL

c1ccc(Nc2ccccc2)cc1 [diphenylamine]
LogPow of calibration substances [4]: 3.4

OCCCCCCn1cc([C+](c2cn(CCCCCCO)c3ccccc23)c2cn(CCCCCCO)c3ccccc23)c2ccccc21.[Cl-] [8e, tris(1-(6-hydroxyhexyl)-1H-indol-3-yl)methylium chloride]
MIC (S. aureus ATCC 3798; [5]): 0.5 µg/mL
MIC (S. aureus 5; [6]): 0.5 µg/mL
LogPow [1]: 5.4
MIC (S. aureus 10; [7]): 0.5 µg/mL
MIC (P. aeruginosa ATCC 27853; [8]): > 64 µg/mL
MIC (antibacterial activity, strains not specified) [2]: highly active against Gram-positive bacteria
MIC ([2]; read-out: MIC (antibacterial activity, strains not specified)): 0.5 µg/mL
MIC (S. aureus ATCC 700699; [9]): active
MIC (S. aureus ATCC 700699; [10]): 0.5 µg/mL
MIC (S. aureus 100 KC; [11]): 0.5 µg/mL
MIC (S. epidermidis 533; [12]): 0.5 µg/mL
MIC (E. faecium 569; E. faecium 569, resistant to cefuroxime, clindamycin, gentamycin, vancomycin, doxycycline): >64 µg/mL
MIC (E. faecium 569; [13]): > 64 µg/mL
MIC (E. coli ATCC 25922; E. coli ATCC 25922): moderate level of activity
MIC (E. coli ATCC 25922; [14]): 8 µg/mL
MIC [3, 15]: > 64 µg/mL
MIC (K. pneumoniae ATCC 13883; [16]): 8 µg/mL
MIC (S. aureus ATCC 25923; [17]): 0.5 µg/mL

c1ccc(N(c2ccccc2)c2ccccc2)cc1 [triphenylamine]
LogPow of calibration substances [4]: 5.7

Nc1ccc(Cl)cc1 [p-chloroaniline]
LogPow of calibration substances [4]: 1.8

C[C@H]1COc2c(N3CCN(C)CC3)c(F)cc3c(=O)c(C(=O)O)cn1c23 [Lf, levofloxacin, reference compound]
MIC (S. aureus ATCC 3798; [5]): 32 µg/mL (≈ 88.6 µM)
MIC (S. aureus 5; [6]): 0.25 µg/mL (≈ 0.692 µM)
MIC (S. aureus 10; [7]): 0.13 µg/mL (≈ 0.36 µM)
MIC (P. aeruginosa ATCC 27853; [8]): 1 µg/mL (≈ 2.77 µM)
MIC (S. aureus ATCC 700699; [10]): 16 µg/mL (≈ 44.3 µM)
MIC (S. aureus 100 KC; [11]): 32 µg/mL (≈ 88.6 µM)
MIC (S. epidermidis 533; [12]): 0.5 µg/mL (≈ 1.38 µM)
MIC (E. faecium 569; [13]): 1 µg/mL (≈ 2.77 µM)
MIC (E. coli ATCC 25922; [14]): 0.06 µg/mL (≈ 0.166 µM)
MIC [3, 15]: 0.13 µg/mL (≈ 0.36 µM)
MIC (K. pneumoniae ATCC 13883; [16]): 0.25 µg/mL (≈ 0.692 µM)
MIC (S. aureus ATCC 25923; [17]): 0.25 µg/mL (≈ 0.692 µM)

OCCCCn1cc([C+](c2cn(CCCCO)c3ccccc23)c2cn(CCCCO)c3ccccc23)c2ccccc21.[Cl-] [8c, tris(1-(4-Hydroxybutyl)-1H-indol-3-yl)methylium chloride]
MIC (S. aureus ATCC 3798; [5]): 16 µg/mL
MIC (S. aureus 5; [6]): 8 µg/mL
LogPow [1]: 2.9
MIC (S. aureus 10; [7]): 8 µg/mL
MIC (P. aeruginosa ATCC 27853; [8]): > 64 µg/mL
MIC (S. aureus ATCC 700699; [10]): 8 µg/mL
MIC (S. aureus 100 KC; [11]): 16 µg/mL
MIC (S. epidermidis 533; [12]): 16 µg/mL
MIC (E. faecium 569; [13]): > 64 µg/mL
MIC (E. coli ATCC 25922; [14]): 32 µg/mL
MIC [3, 15]: > 64 µg/mL
MIC (K. pneumoniae ATCC 13883; [16]): 8 µg/mL
MIC (S. aureus ATCC 25923; [17]): 16 µg/mL

Nc1ccccc1 [aniline]
LogPow of calibration substances [4]: 0.9

OCCCn1cc([C+](c2cn(CCCO)c3ccccc23)c2cn(CCCO)c3ccccc23)c2ccccc21.[Cl-] [8b, tris(1-(3-Hydroxypropyl)-1H-indol-3-yl)methylium chloride]
MIC (S. aureus ATCC 3798; [5]): 16 µg/mL
MIC (S. aureus 5; [6]): 16 µg/mL
LogPow [1]: 1.2
MIC (S. aureus 10; [7]): 8 µg/mL
MIC (P. aeruginosa ATCC 27853; [8]): > 64 µg/mL
MIC (S. aureus ATCC 700699; [10]): > 64 µg/mL
MIC (S. aureus 100 KC; [11]): 16 µg/mL
MIC (S. epidermidis 533; [12]): 32 µg/mL
MIC (E. faecium 569; [13]): 32 µg/mL
MIC (E. coli ATCC 25922; [14]): > 64 µg/mL
MIC [3, 15]: > 64 µg/mL
MIC (K. pneumoniae ATCC 13883; [16]): > 64 µg/mL
MIC (S. aureus ATCC 25923; [17]): 32 µg/mL

OCCn1cc([C+](c2cn(CCO)c3ccccc23)c2cn(CCO)c3ccccc23)c2ccccc21.[Cl-] [8a, tris(1-(2-Hydroxyethyl)-1H-indol-3-yl)methylium chloride]
MIC (S. aureus ATCC 3798; [5]): 32 µg/mL
MIC (S. aureus 5; [6]): 64 µg/mL
LogPow [1]: 1.15
MIC (S. aureus 10; [7]): 16 µg/mL
MIC (P. aeruginosa ATCC 27853; [8]): > 64 µg/mL
MIC (S. aureus ATCC 700699; [10]): 32 µg/mL
MIC (S. aureus 100 KC; [11]): 64 µg/mL
MIC (S. epidermidis 533; [12]): 32 µg/mL
MIC (E. faecium 569; [13]): > 64 µg/mL
MIC (E. coli ATCC 25922; [14]): 16 µg/mL
MIC [3, 15]: > 64 µg/mL
MIC (K. pneumoniae ATCC 13883; [16]): > 64 µg/mL
MIC (S. aureus ATCC 25923; [17]): 32 µg/mL

CCN(CC)c1ccc(C(=C2C=CC(=[N+](CC)CC)C=C2)c2ccccc2)cc1 [BG, brilliant green, reference compound]
MIC (S. aureus ATCC 3798): 0.06 µg/mL
MIC (S. aureus 5; MRSA): 0.06 µg/mL
MIC (S. aureus 10; 10): 0.13 µg/mL
MIC (P. aeruginosa ATCC 27853): > 64 µg/mL
MIC (S. aureus ATCC 700699; Staphylococcus aureus, ATCC700699): 1 µg/mL
MIC (S. aureus 100 KC; MRSA): 0.06 µg/mL
MIC (S. epidermidis 533; 533): 0.06 µg/mL
MIC (E. faecium 569; Enterococcus faecium, 569): 0.25 µg/mL
MIC (E. coli ATCC 25922; Escherichia coli, ATCC25922): 4 µg/mL
MIC [3]: 16 µg/mL
MIC (K. pneumoniae ATCC 13883): 8 µg/mL
MIC (S. aureus ATCC 25923): 0.06 µg/mL
